Values quoted from earlier work in US9156877B2, “17-hydroxy-17-pentafluorethyl-estra-4,9(10)-dien-11-benzylidene derivatives, methods for the production thereof and use thereof for treating diseases” (Bayer Intellectual Property GmbH, priority 2009, dated 2015).

Experiments:
[1] = compared to the compounds of the invention; cited from earlier work
[2] = compared to the compounds of the invention; cited from earlier work; remark: listed apart in the source

CC(=O)c1ccc(C2CC3(C)C(CCC3(O)C(F)(F)C(F)(F)F)C3CCC4=CC(=O)CCC4=C23)cc1 (stereo not drawn) [11-β-(4-acetylphenyl)-20,20,21,21,21-pentafluoro-17-hydroxynor-17-pregna-4,9-dien-3-one]
water solubility (in words) [1]: poor | in vivo half-life (in words) [2]: relatively short
